Source: publication PMC6789456, “Ursolic Acid Derivatives as Potential Agents Against Acanthamoeba Spp” (Pathogens, 2019)

How the values were obtained:
Acanthamoeba griffini = experiment: In vitro effect against the trophozoite stage, Alamar Blue assay; type: cell-based; details: 96 h, trophozoites, mean ± SD
Procedure: (§1) The anti-Acanthamoeba activity of molecules was evaluated against the Acanthamoeba castellanii Neff (ATCC 30010) type strain from the American Type Culture Collection and Acanthamoeba griffini obtained in previous studies. Those strains were grown axenically in Peptone Yeast Glucose (PYG) medium (0.75% (w/v) proteose peptone, 0.75% (w/v) yeast extract, and 1.5% (w/v) glucose) containing 40 μg of gentamicin ml−1 (Biochrom AG, Cultek, Granollers, Barcelona, Spain).
(§2) The anti-Acanthamoeba activities of the compounds were determined by the Alamar Blue assay as previously described. Briefly, Acanthamoeba strains were seeded in duplicate on a 96-well microtiter plate with 50 μL from a stock solution of 10^4 cells mL^−1. Amoebae were allowed to adhere for 15 min and 50 μL of serial dilution series of the eye drop solution was added. Finally, the Alamar Blue assay reagent (Bioresource, Europe, Nivelles, Belgium) was added into each well at an amount equal to 10% of the medium volume. The plates were then incubated for 96 h at 28 °C with a slight agitation and the emitted fluorescence was measured with an Enspire microplate reader (PerkinElmer, Massachusetts, USA) at 570/585 nm.

[1] = Cytotoxicity, Alamar Blue assay; type: cell-based; details: mouse, J774.A1 macrophage cell line (ATCC TIB-67), J774.A1, 24 h, mean ± SD, >100 if inhibition did not reach 50% at the highest concentration, read-out: Murine Macrophages CC50
Procedure: Cytotoxicity of the selected compounds was evaluated after 24 h incubation of murine macrophage J774.A1 cell line (ATCC # TIB-67) with different concentrations of the tested compounds at 37 °C in a 5% CO2 humidified incubator. The viability of the macrophages was determined with the Alamar Blue assay as previously described.

[2] = test system: Acanthamoeba castellanii Neff; experiment: In vitro effect against the trophozoite stage, Alamar Blue assay; type: cell-based; details: for IC50: trophozoites, Alamar blue, 96 h, mean ± SD; for IC90: concentration used in the double-stain assay, A. castellanii Neff trophozoites
Procedure: as §1, §2

Acanthamoeba spp. cysts = experiment: In vitro effect against the cyst stage, Alamar Blue assay; type: cell-based; details: both strains, viability of cysts
Procedure: The cysticidal activity was determined by the Alamar Blue assay at 144 h and confirmed visually by inverted microscopy. Cysts of both strains were prepared as described by Lorenzo-Morales et al. (2008). Briefly, trophozoite were transferred from PYG medium based cultures (trophozoite medium) to Neff´s encystment medium (NEM; 0.1 M KCl, 8 mM MgSO4·7H2O, 0.4 mM CaCl2·2H2O, 1 mM NaHCO3, and 20 mM ammediol (2-amino-2-methyl-1,3-propanediol; Sigma Aldrich Chemistry Ltd., Madrid, Spain), pH 8.8, at 25 °C) and were cultured in this medium with gentle shaking for a week in order to obtain mature cysts. After that, mature cysts were harvested and washed twice using the PYG medium.
A serial dilution of the tested molecules was made in PYG. The in vitro susceptibility assay was performed in sterile 96-well microtiter plates (Corning™). To these wells the drug concentration to be tested and 5 × 10^4 mature cysts of Acanthamoeba/ml were added. The final volume was 100 μL in each well. After 7 days of incubation with the drugs, the plate was centrifuged at 3000 rpm for 10 min. […] Finally, 10 μL of the Alamar Blue assay reagent (Biosource, Europe, Nivelles, Belgium) was placed into each well, and the plates were then incubated for 144 h at 28 °C with slight agitation and the emitted fluorescence was periodically examined with an Enspire microplate reader (PerkinElmer, Waltham, MA, USA) at 570/585 nm.

[3] = test system: Acanthamoeba castellanii Neff trophozoite; experiment: Double-stain assay (Hoechst 33342/PI) for programmed cell death; type: cell-based; details: treated with IC90, 24 h; for Propidium Iodide (PI) stain: data not shown
Procedure: A double-stain apoptosis detection kit (Hoechst 33342/PI; GenScript, Piscataway, NJ, USA) and an inverted confocal microscope (Leica DMI 4000B) were used. The experiment was carried out by following the manufacturer’s recommendations, and 10^5 cells/well were incubated in a 24-well plate for 24 h with the previously calculated IC90. The double-staining pattern allows the identification of three groups in a cellular population: Live cells will show only a low level of fluorescence, cells undergoing PCD will show a higher level of blue fluorescence (as chromatin condenses), and dead cells will show low-blue and high-red fluorescence (as the propidium iodide stain enters the nucleus).

[4] = test system: Acanthamoeba castellanii Neff; experiment: Mitochondrial membrane potential, JC-1; type: cell-based; details: treated with IC90, 24 h; for decrease of mitochondrial membrane potential (ΔΨm): ratio of fluorescence 590/530 nm
Procedure: The collapse of an electrochemical gradient across the mitochondrial membrane during apoptosis was detected with the JC-1 mitochondrial membrane potential detection kit (Cell Technology). After being treated with IC90 of the test solution for 24 h, the cells were centrifuged (1000 r.p.m. × 10 min) and resuspended in JC-1 buffer. After that, 100 µL of each treated culture was added to a black 96 well plate (PerkinElmer) then 10 µL of JC-1 was added and incubated at 26 °C for 30 min. Analysis for the mean green and red fluorescence intensity was done using an Enspire microplate reader (PerkinElmer, Waltham, MA, USA) after 30 minutes. As well as images were taken on an EVOS fluorescence microscope from the Advanced Microscopy Group (AMG). The staining pattern allows the identification of two groups in a cellular population: Live cells will show only red fluorescence; and cells with low mitochondrial potential, (undergoing PCD) will show a higher level of green and red fluorescence.

Acanthamoeba Neff = experiment: Intracellular ROS production, CellROX Deep Red staining; type: cell-based, Acanthamoeba castellanii; details: treated with IC90, 24 h, vs negative control
Procedure: The generation of intracellular ROS was detected using the CellROX® Deep Red fluorescent probe (Invitrogen). The cells were treated with IC90 of both 5 and 7 for 24 h and exposed to CellROX® Deep Red (5 μM, 30 min) at 26 °C in the dark.

[5] = Solubility (comparison in words); type: physicochemical; details: compared to the origin compound 1 (ursolic acid)
[6] = test system: murine macrophage J774.A1 cell line; experiment: Cytotoxicity, Alamar Blue assay; type: cell-based; details: 50 µM, J774A.1, inverted microscopy, compared to 1

**Q.** Which results are given for `[H]/N=C(\N/C(=N/[H])NCCCCCCNC(=N)NC(=N)Nc1ccc(Cl)cc1)Nc1ccc(Cl)cc1` [Chlorhexidine, reference compound]?
**A.** IC50 (Acanthamoeba griffini; Acanthamoeba griffini): 3.73 ± 0.98 µM; CC50 at 24 h [1]: 7.4 ± 0.39 µM

**Q.** With `C[C@H]1[C@H](C)CC[C@]2(C(=O)O)CC[C@]3(C)C(=CC[C@@H]4[C@@]5(C)CC[C@H](O)C(C)(C)[C@@H]5CC[C@]43C)[C@H]12` [Compound 1, Ursolic acid] as the compound, how does the IC50 [2] read?
**A.** Its IC50 is 40 ± 2.7 µM.

**Q.** What about the IC50 (Acanthamoeba griffini; Acanthamoeba griffini) of the same compound?
**A.** The IC50 was 15.3 µM.

**Q.** What about the IC50 (Acanthamoeba griffini) of the same compound?
**A.** Its IC50 is 15.2 ± 0.3 µM.

**Q.** What about the CC50 at 24 h [1] of the same compound?
**A.** Its CC50 at 24 h is 17.7 ± 3.3 µM.

**Q.** Which IC50 [2] does the source give for `CC(=O)O[C@H]1CC[C@@]2(C)C(CC[C@]3(C)C2CC=C2C4[C@@H](C)[C@H](C)CC[C@]4(C(=O)O)CC[C@]23C)C1(C)C` (some centres unmarked) [Compound 2] here?
**A.** The IC50 was 24.2 ± 0.3 µM.

**Q.** What about the IC50 (Acanthamoeba griffini; Acanthamoeba griffini) of the same compound?
**A.** The IC50 was 11.1 ± 0.8 µM.

**Q.** What about the CC50 at 24 h [1] of the same compound?
**A.** Its CC50 at 24 h is 93.2 ± 7.2 µM.

**Q.** For `C[C@@H]1CC[C@]2(C(=O)O)CC[C@]3(C)C(=CCC4[C@@]5(C)CCC(=O)C(C)(C)C5CC[C@]43C)C2[C@H]1C` (some centres unmarked) [Compound 3], which IC50 [2] is on record?
**A.** The IC50 was 34.9 ± 1.5 µM.

**Q.** What about the IC50 (Acanthamoeba griffini; Acanthamoeba griffini) of the same compound?
**A.** The IC50 was 10.2 ± 0.5 µM.

**Q.** And the CC50 at 24 h [1]?
**A.** Its CC50 at 24 h is > 100 µM.

**Q.** Which results are given for `COC(=O)[C@]12CC[C@@H](C)[C@H](C)C1C1=CCC3[C@@]4(C)CC[C@H](O)C(C)(C)C4CC[C@@]3(C)[C@]1(C)CC2` (some centres unmarked) [Compound 4]?
**A.** IC50 [2]: 21.9 ± 0.9 µM; IC50 (Acanthamoeba griffini; Acanthamoeba griffini): 8.7 ± 0.4 µM; CC50 at 24 h [1]: 26.3 ± 1.7 µM

**Q.** Which results are given for `COC(=O)[C@]12CC[C@@H](C)[C@H](C)C1C1=CCC3[C@@]4(C)CC[C@H](OC)C(C)(C)C4CC[C@@]3(C)[C@]1(C)CC2` (some centres unmarked) [Compound 5]?
**A.** IC90 [2]: 86 µM; IC50 [2]: 22.7 ± 1.4 µM; IC50 (Acanthamoeba griffini; Acanthamoeba griffini): 6.9 ± 1.5 µM; CC50 at 24 h [1]: > 100 µM; cysticidal effect (Acanthamoeba spp. cysts): dose-dependent cysticidal effect; chromatin condensation (Hoechst 33342 stain) [3]: induced chromatin condensation; Propidium Iodide (PI) stain [3]: did not stain; mitochondrial membrane potential, JC-1 imaging [4]: depolarize the mitochondrial membrane potential; decrease of mitochondrial membrane potential (ΔΨm) [4]: 49.0%; reactive oxygen species (ROS) levels (Acanthamoeba Neff): increased; solubility [5]: higher than the origin compound 1; effect on morphology of murine macrophages [6]: did not affect the morphology

**Q.** For `COC(=O)[C@]12CC[C@@H](C)[C@H](C)C1C1=CCC3[C@@]4(C)CC[C@H](OC(C)=O)C(C)(C)C4CC[C@@]3(C)[C@]1(C)CC2` (some centres unmarked) [Compound 6], which IC50 [2] is on record?
**A.** Its IC50 is 37.1 ± 1.3 µM.

**Q.** What about the IC50 (Acanthamoeba griffini; Acanthamoeba griffini) of the same compound?
**A.** Its IC50 is 9.1 ± 1 µM.

**Q.** And the CC50 at 24 h [1]?
**A.** Its CC50 at 24 h is > 100 µM.

**Q.** What does the source list for `COC(=O)[C@]12CC[C@@H](C)[C@H](C)C1C1=CCC3[C@@]4(C)CC[C@H](OC(=O)c5ccc([N+](=O)[O-])cc5)C(C)(C)C4CC[C@@]3(C)[C@]1(C)CC2` (stereo partly drawn) [Compound 7, 3β-(p-nitrobenzoyloxy)-urs-12-en-28-oic acid methyl ester]?
**A.** IC90 [2]: 75 µM; IC50 [2]: 21.4 ± 1.3 µM; IC50 (Acanthamoeba griffini; Acanthamoeba griffini): 6.7 ± 1.8 µM; CC50 at 24 h [1]: > 100 µM; cysticidal effect (Acanthamoeba spp. cysts): dose-dependent cysticidal effect; chromatin condensation (Hoechst 33342 stain) [3]: induced chromatin condensation; Propidium Iodide (PI) stain [3]: did not stain; mitochondrial membrane potential, JC-1 imaging [4]: depolarize the mitochondrial membrane potential; decrease of mitochondrial membrane potential (ΔΨm) [4]: 35.0%; reactive oxygen species (ROS) levels (Acanthamoeba Neff): increased; solubility [5]: higher than the origin compound 1

**Q.** For `COC(=O)[C@]12CC[C@@H](C)[C@H](C)C1C1=CCC3[C@@]4(C)CC[C@H](OC(=O)c5ccccc5)C(C)(C)C4CC[C@@]3(C)[C@]1(C)CC2` (some centres unmarked) [Compound 8], which IC50 [2] is on record?
**A.** The IC50 was 33.5 ± 2.1 µM.

**Q.** And the IC50 (Acanthamoeba griffini; Acanthamoeba griffini)?
**A.** The IC50 was 11.5 ± 0.8 µM.

**Q.** And the CC50 at 24 h [1]?
**A.** The CC50 at 24 h was > 100 µM.
